Measurements taken from patent publication US12251422B2, “Compositions and methods for treating neurological and other disorders” (Rush University Medical Center, priority 2018, dated 2025).

Tests used:
[1] = test system: NF-κB; assay: NF-κB activation by EMSA in BV-2 microglial cells; type: cell-based
Description: FIG. 4(A-S). Effect of wtTIDM and mTIDM peptides on the induction of NF-κB activation and the expression of proinflammatory molecules in microglial cells. BV-2 microglial cells preincubated with 10 μM wtTIDM/mTIDM peptides for 1 h were stimulated with 1 μM fibrillar Aβ1-42 (A-C), 1 μM MPP+ (D-F), 250 ng/ml LTA (G-I), […] LPS (J-L), 1 μM flagellin (M-O), and 1 μM CpG DNA (P-R) under serum-free condition. After 1 h of stimulation, the activation of NF-κB was monitored in nuclear extracts by EMSA (A, fibrillar Aβ; D, MPP+; G, LTA; J, LPS; M, flagellin, P; CpG DNA). After 4 h of stimulation, the mRNA expression of IL-1β (B, E, H, K, N, & Q) and iNOS (C, F, I, L, O, & R) was monitored by real-time PCR (B-C, fibrillar Aβ; E-F, MPP+; H-I, LTA; K-L, LPS; N-O, flagellin; Q-R, CpG DNA) (n=2 replicates/dose in 3 independent experiments). ap<0.001 vs control; bp<0.001 vs stimuli by two-sample t-tests. FIG. 4S is a schematic representation of the relationships in microglia of Toll-Like Receptors, the stimulators tested, wTIDM, MyD88 and NF-κB.
FIG. 14 (A-D). Effect of wtTIDM and mTIDM peptides on polyIC-mediated activation of NF-κB activation and the expression of proinflammatory molecules in microglial cells. BV-2 microglial cells preincubated with 10 μM wtTIDM/mTIDM peptides for 1 h were stimulated with 50 μM polyIC. A) After 1 h of stimulation, the activation of NF-κB was monitored in nuclear extracts by EMSA. After 4 h of stimulation, the mRNA expression of IL-1β and iNOS was monitored by semi-quantitative RT-PCR (B) and real-time PCR (C, IL-1β; D, iNOS) (n=2 replicates/condition in 3 independent experiments). ap<0.001 vs control; bp<0.001 vs stimuli by two-sample t-tests.
Nuclear extracts were isolated and EMSA was carried out as described before (22, 23).

[2] = test system: EAE mice; assay: Experimental allergic encephalomyelitis (EAE) in C57/BL6 mice; type: in vivo, mouse; details: 0.1 mg/kg body wt/d intranasal from 10 dpi
From the text: FIG. 7 (A-V). The wtTIDM, but not mTIDM, peptide protects mice from experimental allergic encephalomyelitis (EAE) and collagen-induced arthritis (CIA). […] Mice (n=6 per group in two independent experiments) were scored daily. […] On 22 dpi, general motor activities were monitored using the Ethovision XT 13.0 Open Field Activity System (Noldus) (B, heat-map images representing overall motor activities; C, distance travelled; D, rearing; E, velocity; F, acceleration) and rotorod (G). Foot print analysis (H, stride length; I, print length; J, sway length; K, toe spread) was also performed, L) CIA was induced in male DBA/1J mice by bovine type II collagen immunization and from 29 dpi, mice were treated with wtTIDM and mTIDM peptides (1 mg/kg body wt/d) via i.p. injection. Mice (n=6 per group in two independent experiments) were scored daily. […] On 60 dpi, general motor activities were monitored by Ethovision System (M, heat-map images representing overall motor activities; N, distance travelled; O, rearing; P, velocity), rotorod (Q) and grip strength (R). Foot print analysis (S, stride length; T, print length; U, sway length; V, toe spread) was also performed. Six mice (n=6 per group) were used in two independent experiments. ap<0.001 & bp<0.05 vs control; cp<0.001 & dp<0.05 vs EAE or CIA by two-sample t-tests.
FIG. 25 (A-D). Footprint analysis of EAE mice after treatment with wtTIDM and mTIDM peptides. On the walking track, we applied white paper strips and obtained the footprints of mice of different groups (A, control; B, EAE; C, EAE+wtTIDM; D, EAE+mTIDM) on paper using black ink. A total of 30-40 steps for each group were determined. Four different footprint measurements, viz., stride length (SL), print length (PL), sway length (SWL), and toe spread (TS) were calculated in centimeters from the recorded prints of mice. While SL refers the distance between the front edge of two consecutive prints of the same paw, SWL refers the distance between the paws perpendicular to the distance of travel and PL indicates the measurement of length of print area. […]

[3] = test system: 5×FAD Tg mice; assay: Novel object recognition test in 5×FAD Tg mice; type: in vivo, mouse; details: vs untreated Tg or mTIDM-treated Tg mice
From the text: FIG. 6 (A-N). Intranasal delivery of wtTIDM, but not mTIDM, peptide inhibits neuronal apoptosis in vivo in the hippocampus and improves memory and learning in Tg mice. […] After 30 d of treatment, mice were sacrificed and hippocampal sections were double-labeled for TUNEL & NeuN (A). […] Hippocampal extracts of all groups of mice (n=4) were immunoblotted for cleaved caspase 3 (D). Actin was run as loading control. E) Bands were scanned and values (cleaved caspase 3/Actin) are presented as relative to non-Tg control. […] Protein levels of PSD-95. NR2A and GluR1 were monitored in hippocampal extracts by Western blot (F). Bands were scanned and values (G, PSD-95/Actin; H, NR2A/Actin; I, GluR1/Actin) are presented as relative to non-Tg control. […] Mice were tested for Barnes maze (J, latency; K, number of errors made) and T maze (L, number of positive turns; M, number of negative turns). Short-term memory was also monitored by novel object recognition test, which is represented by discrimination index (N). Eight mice (n=8) were used in each group and results were analyzed by one-way ANOVA.
Novel object recognition task was performed to monitor the short term memory as described by others (58) and us (57). Briefly, during training, mice were placed in a square novel box (20 inches long by 8 inches high) surrounded with infrared sensor. […]

Row | Structure (SMILES) | effect on activation of NF-κB induced by any of the stimuli ([1]; fibrillar Aβ, MPP+, LTA, poly IC, LPS, flagellin, CpG DNA) | clinical symptoms of EAE [2] | inhibition of LTA-mediated activation of NF-κB ([1]; 10 μM peptide 1 h, then 250 ng/ml LTA for 1 h) | suppression of NF-κB activation induced by CpG DNA ([1]; 10 μM peptide 1 h, then 1 μM CpG DNA for 1 h) | suppression of NF-κB activation induced by MPP+ ([1]; 10 μM peptide 1 h, then 1 μM MPP+ for 1 h) | inhibition of fibrillar Aβ-mediated activation of NF-κB ([1]; 10 μM peptide 1 h, then 1 μM fibrillar Aβ1-42 for 1 h) | suppression of NF-κB activation induced by flagellin ([1]; 10 μM peptide 1 h, then 1 μM flagellin for 1 h) | suppression of NF-κB activation induced by poly IC ([1]; 10 μM peptide 1 h, then 50 μM polyIC for 1 h) | suppression of NF-κB activation induced by LPS ([1]; 10 μM peptide 1 h, then 1 mg/ml LPS for 1 h) | short-term memory, novel object recognition (discrimination index) [3] | locomotor activities and footprints in EAE mice ([2]; 22 dpi)
1 | CC[C@H](C)[C@H](NC(=O)[C@H](CCCCN)NC(=O)[C@@H](NC(=O)[C@H](CCC(N)=O)NC(=O)[C@H](CCCNC(=N)N)NC(=O)[C@@H](N)CC(=O)O)[C@@H](C)CC)C(=O)N[C@@H](Cc1c[nH]c2ccccc12)C(=O)N[C@@H](Cc1ccccc1)C(=O)N[C@@H](CCC(N)=O)C(=O)N[C@@H](CC(N)=O)C(=O)N[C@@H](CCCNC(=N)N)C(=O)N[C@@H](CCCNC(=N)N)C(=O)N[C@@H](CCSC)C(=O)N[C@@H](CCCCN)C(=O)N[C@@H](Cc1c[nH]c2ccccc12)C(=O)N[C@@H](CCCCN)C(=O)N[C@@H](CCCCN)C(=O)N1CCC[C@H]1C(=O)NCC(=O)N[C@@H](Cc1c[nH]c2ccccc12)C(=O)N[C@@H](Cc1c[nH]cn1)C(=O)N[C@@H](CCC(N)=O)C(=O)N[C@@H](CC(=O)O)C(=O)O [mTIDM, drqikiwfqnrrmkwkkPGWHQD] | had no effect | had no effect |  |  |  |  |  |  |  |  | 
2 | CC[C@H](C)[C@H](NC(=O)[C@H](CCCCN)NC(=O)[C@@H](NC(=O)[C@H](CCC(N)=O)NC(=O)[C@H](CCCNC(=N)N)NC(=O)[C@@H](N)CC(=O)O)[C@@H](C)CC)C(=O)N[C@@H](Cc1c[nH]c2ccccc12)C(=O)N[C@@H](Cc1ccccc1)C(=O)N[C@@H](CCC(N)=O)C(=O)N[C@@H](CC(N)=O)C(=O)N[C@@H](CCCNC(=N)N)C(=O)N[C@@H](CCCNC(=N)N)C(=O)N[C@@H](CCSC)C(=O)N[C@@H](CCCCN)C(=O)N[C@@H](Cc1c[nH]c2ccccc12)C(=O)N[C@@H](CCCCN)C(=O)N[C@@H](CCCCN)C(=O)N1CCC[C@H]1C(=O)NCC(=O)N[C@@H](C)C(=O)N[C@@H](Cc1c[nH]cn1)C(=O)N[C@@H](CCC(N)=O)C(=O)N[C@@H](CCCCN)C(=O)O [wtTIDM, drqikiwfqnrrmkwkkPGAHQK] |  | strongly inhibited | inhibited | remained unable to suppress | remained unable to suppress | inhibited | remained unable to suppress | remained unable to suppress | remained unable to suppress | significant improvement | improved
